Laboratory results from patent publication US20250130239A1, “PROTEIN DEGRADER” (University of Dundee, priority 2021, published 2025).

Assays:
VHL (VCB protein) = target: T1, VHL (VCB protein) (Homo sapiens, UniProt P40337); experiment: Fluorescence polarization competitive binding assay, binary binding; details: compound alone; displacement of HIF-1a peptide probe; read-out: binary affinity to VHL Kd
T1 construct: N-terminally Hiss-tagged VHL (54-213); His6 (N, cleaved yes); made in house; host or cells: E. coli
Method: (§1) Protein Expression and Purification. […] The complex was further purified by anion exchange followed by gel filtration chromatography.
(§2) Fluorescence Polarization Binding Assay. […] All components were dissolved from stock solutions using 100 mM Bis-Tris propane, 100 mM NaCl, 1 mM DTT, pH 7.0, to yield a final assay volume of 15 μL. DMSO was added as appropriate to ensure a final concentration of 2% v/v. […] Percentage displacement values were obtained by normalization of controls were plotted against Log[Compound]. IC50 values were determined for each titration using nonlinear regression analysis with Prism (v. 9.1.0, GraphPad). […] Cooperativity values (a) for each PROTAC were calculated using the ratio: α=binary Kd (−bromodomain)/ternary Kd (+bromodomain).

[1] = target: T2, VHL, compound preincubated with Brd4^BD2 L387A (Homo sapiens, UniProt O60885+P40337, L387A); experiment: Fluorescence polarization competitive binding assay, ternary complex binding; details: displacement of HIF-1a peptide probe, read-out: ternary binding affinity Kd
T2 construct: N-terminally Hiss-tagged VHL (54-213); N-terminally His6-tagged Brd4-BD2^L387A (333-460) was expressed in E. coli; His6 (N, cleaved yes); made in house; host or cells: E. coli
Method: as §1, §2

MV-4-11 cells = experiment: CellTiter-Glo cell viability assay, MV-4-11; assay type: cell-based, human; details: up to 10 μM; 24 h
Method: Cell Viability Assay. MV-4-11 cells were plated at a density of 2×10^4 cell per well of a 96 well white-bottom plate, and left to grow overnight in 50 μl of IMDM (Invitrogen, arlsebad, CA, USA) supplemented with 10% (v/v) Fetal bovine serum (FBS) (Thermo Fisher, Waltham, MA, USA) and 1% (v/v) penicillin/streptomycin (pen/strep) (#15140122, Thermo Fisher, Waltham, MA, USA) at 37° C., 5% CO2, and 95% humidity. […] These cells were then left to incubate at 37° C., 5% CO2, and 95% humidity for one day prior to undergoing spectrophotometric analysis. 22RV1 cells were plated at a density of 2×10^4 cell per well of a 96 well white-bottom plate, and left to grow overnight in 100 μL of RPMI-1640 (Invitrogen, Carlsebad, CA, USA) supplemented with 10% (v/v) fetal bovine serum (FBS) (Thermo Fisher, Waltham, MA, USA) and 1% (v/v) penicillin/streptomycin (pen/strep) (#15140122, Thermo Fisher, Waltham, MA, USA) at 37° C., 5% CO2, and 95% humidity. […] Plates were subjected to 2 mins on an orbital shaker to encourage lysis and left for a further 5 mins to reach peak luminescence. Luminescence was then recorded on a BMG Labtech PHERAstar luminescence plate reader with recommended settings. Data extracted from this analysis was analysed with Graphpad Prism (v. 8.2.0, GraphPad) and normalized to the DMSO vehicle control. […]

[2] = In vivo PK profiling of AGB1; design: species or system C57BL/6 male mice; details: SC (5 mg/kg), mice
Method: In Vivo PK Profiling. Pharmacokinetic profiling was outsourced and undertaken by Shanghai ChemPartner Co., Ltd. Six to eight-week-old, C57BL/6 male mice purchased from Jihui Laboratory Animal Co. LTD were used in the study. […] The animals were restrained manually at the designated time points (0.083, 0.25, 0.5, 1, 2, 4 and 8 h), approximately 110 μL of blood sample was collected via facial vein into K2EDTA tubes. Three mice per time point were used resulting in a total of […]. Blood sample was put on ice and centrifuged at 2000 g for 5 mins to obtain plasma sample within 15 min. Plasma samples were stored at approximately −70° C. until analysis. A 30 μL aliquot of plasma was added with 200 μL internal standard (Diclofenac, 40 ng/mL) in 1% formic acid in MeCN. The mixture was then vortexed for 1 min and then centrifuged for 10 min at 5800 rpm. 100 μL of supernatant was transferred to a new plate. 0.5 μL of solvent was injected to LC-MS/MS. LC-MS/MS instrument used: SCIEX LC-MS/MS-45 (Triple Quad 6500+). Data was analysed by WinNonLin and Microsoft Excel.

[3] = target: T3, MCM2 (P49736), BromoTag N-term (Homo sapiens, UniProt O60885+P40337, L387A); experiment: Degradation of BromoTag'ed MCM2 by AGB1; assay type: cell-based
T3 construct: comprising residues 368-440 of human Brd4; MCM2 (endogenous protein, fusion partner in the same polypeptide); expressed in transfected cells
Description: Degradation of a variety of target proteins. […] We performed CRISPR knock-in of the BromoTag, as described, into the endogenous loci of five additional proteins. […] The target proteins of Table 6 are all different, are all known to have different cellular roles and function, intracellular expression, and distinctive turnover rates within cells.

CC[C@@H](C(=O)OCCOCCOCCOCC(=O)N[C@H](C(=O)N1C[C@H](O)C[C@H]1C(=O)NCc1ccc(-c2scnc2C)cc1)C(C)(C)C)[C@@H]1N=C(c2ccc(Cl)cc2)c2c(sc(C)c2C)-n2c(C)nnc21 (single isomer, unassigned) [AGB1 (46)]
Kd (VHL (VCB protein)): 125 nM
Kd [1]: 11 nM
cytotoxicity (MV-4-11 cells): lack of cytotoxicity
F (%) [2]: 140%
Dmax [3]: > 95%
pDC50 ([3]; BromoTag'ed MCM2, N-term tag): 8.0
